# Laboratory results: paper PMC5045260 (Phytotherapy research : PTR, 2016)
# pIC50: −log10 of the molar value.
# Columns and labels:
# c-Met [1] = molecular target: T1, c-Met (Homo sapiens, UniProt P08581); experiment: Z'-LYTE Tyr6 peptide kinase assay, single concentration; type: biochemical
# c-Met [2] = molecular target: T1, c-Met; experiment: Z'-LYTE Tyr6 peptide kinase assay, […] ATP, purified c-Met kinase domain; type: biochemical
# T1 sequence (P08581 956-1390 limits assumed): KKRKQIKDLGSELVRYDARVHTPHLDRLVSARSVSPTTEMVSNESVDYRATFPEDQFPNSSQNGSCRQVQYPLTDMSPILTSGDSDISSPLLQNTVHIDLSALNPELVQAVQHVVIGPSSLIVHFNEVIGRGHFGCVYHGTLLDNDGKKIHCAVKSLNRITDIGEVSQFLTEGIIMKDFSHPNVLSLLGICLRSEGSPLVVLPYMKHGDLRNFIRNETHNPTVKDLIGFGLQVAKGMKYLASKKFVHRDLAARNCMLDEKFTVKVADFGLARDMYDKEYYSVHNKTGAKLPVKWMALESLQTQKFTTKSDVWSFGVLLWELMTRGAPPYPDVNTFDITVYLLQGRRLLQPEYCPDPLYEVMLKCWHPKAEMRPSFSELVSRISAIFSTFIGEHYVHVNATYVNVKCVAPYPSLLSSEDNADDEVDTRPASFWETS
pIC50 (c-Met [2]),SMILES,"Z'-LYTE Tyr6 peptide kinase assay, single concentration (53% reduction at 5 μM), (c-Met [1]) [% reduction at 5]"
,C/C=C(/C=O)[C@@H](CC=O)CC(=O)OCCc1ccc(O)cc1 [oleocanthal],53
5.19,Cc1cc(O)c(C=O)c2c1C(=O)Oc1c(C)c(O)c3c(c1O2)C(O)OC3=O (centres unmarked) [norstictic acid],
